# Results from PubChem BioAssay AID179 (DTP/NCI, 2004).
# The source made the active and inactive calls.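 The calls were made as follows: active = compounds giving half or more protection of infected cells from virus-caused growth loss, again on retest; inactive = the rest.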
# System: CEM cells HIV-1 protection, formazan growth assay
# Assay: NCI AIDS Antiviral Assay
# Conditions: for IC50: measured here: growth of uninfected CEM cells
# How it was run: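 Human CEM cells, uninfected and HIV-1-infected, received five drug concentrations, and growth was read by soluble formazan assay. Compounds giving at least 50% protection were retested; reproducible 100% protection defined confirmed active.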
Compound,EC50,IC50,outcome
Cc1ccc(C(=O)c2cccc(C)c2C(=O)O)c(C)c1,> 200 µM,> 200 µM,–
CCCC(=O)NC(NC1CCCCC1)(C(=O)OCC)C(F)(F)F (stereo not drawn),191 µM,> 200 µM,–
N#C/C(=C\c1cc(F)cc(F)c1)c1ccccn1,> 200 µM,26.3 µM,–
O=c1c2c([nH]c3nccn13)CCCC2,> 200 µM,> 200 µM,–
C=C(C)CNC(=S)N(N)c1ccc2ccccc2c1,> 200 µM,58.9 µM,–
COc1c(C2(c3ccc(F)cc3)SCCCS2)c(=O)c1=O,> 200 µM,> 200 µM,–
CN(C)C(=O)OC1C(=O)N(C)c2ccc(Cl)cc2C2(c3ccccc3)N1C2(Cl)Cl (stereo not drawn),> 200 µM,10.7 µM,–
CC(=S)N=Cc1c(C)[nH]n(-c2ccccc2)c1=O,> 100 µM,41.7 µM,–
CC1CC/C(=C\c2ccc(F)cc2)C2=C1C(c1ccc(F)cc1)n1c(s/c(=C/c3cccc(Br)c3)c1=O)=N2 (stereo not drawn),–,–,inactive
OC1CN=C2C=CC=CN2C1 (stereo not drawn),> 200 µM,> 200 µM,–
C=CC1CC[N-]CC1.[Cl][Cu][Cl],–,–,inactive
Cc1ccc(S(=O)/C=C(\NC(=O)OCc2ccccc2)C(F)(F)F)cc1 (stereo not drawn),–,–,inactive
NC(CCSCCSCCC(N)C(=O)O)C(=O)O (stereo not drawn),> 3.39 µM,> 3.39 µM,–
O=C1C(S)=[N+](O)c2ccccc2[N+]1=O,> 200 µM,> 200 µM,–
NC1CC(=O)c2c(I)sc(I)c21 (stereo not drawn),> 200 µM,4.47 µM,–
O=S(=O)(SSS(=O)(=O)c1ccccc1)c1ccccc1,> 75.9 µM,> 75.9 µM,–
O=S(=O)(C1CCCCC1)N1N=NC2CCCCC21 (stereo not drawn),> 200 µM,> 200 µM,–
CC1(C)OP(=O)(O)C=C1[Se]c1ccccc1,> 324 µM,> 324 µM,–
C[N+](C)(C)CC1CCC/C1=N\OC(=O)c1ccccc1 (stereo not drawn),> 617 µM,> 617 µM,–
COc1cc(/C=C/C(=N\NC(=O)c2ccccc2)c2sc(Nc3ccc(Cl)c(Cl)c3)nc2C)ccc1O,> 46.8 µM,38.9 µM,–
Cc1cc(Cl)ccc1NC(=O)C1C(=O)N(c2ccc(Cl)cc2C)C(=O)/C1=N\N (stereo not drawn),–,–,inactive
CC(C)(C)OC(=O)NCC(=O)NC1C/C(=N\O)c2sccc21 (stereo not drawn),> 200 µM,> 200 µM,–
O=C(N/N=C\c1ccco1)c1ccncc1,> 200 µM,> 200 µM,–

Compound,EC50,IC50,outcome
Cc1cc2c(cc1C)NC(=O)C(C)CN2 (stereo not drawn),> 200 µM,> 200 µM,–
O=C1NC(=S)N/C1=C\c1ccccc1,> 200 µM,178 µM,–
NNC(=Nc1ccccc1)SCc1ccccc1,–,–,inactive
CC(C)C12C=C3CCC4C(C)(C(=O)O)CCCC4(C)C3(CC1)OO2 (stereo not drawn),> 741 µM,162 µM,–
Cn1c(=O)c2nc3sc4c(n3c2n(C)c1=O)C(=O)c1ccccc1C4=O,> 14.1 µM,> 14.1 µM,–
CCOC(=O)/C(=N/Nc1ccccc1)N1C(=S)C=C(C)NN(C)C1=S,> 200 µM,> 200 µM,–
O=C(O)C1(CC(CCCN2CCCCC2)c2ccccc2)CCCC1 (stereo not drawn),> 200 µM,191 µM,–
O=C(Nc1cc(S(=O)(=O)O)cc2cc(S(=O)(=O)O)c(N=Nc3cc(Nc4nc(Cl)nc(Nc5ccc(S(=O)(=O)O)cc5)n4)ccc3S(=O)(=O)O)c(O)c12)c1ccccc1,–,–,inactive
N#C/C(=C\c1ccc2[nH]ccc2c1)C(=O)c1ccc(O)c(O)c1,> 589 µM,102 µM,–
CC(C)Nc1n[nH]c(=O)n1C(C)C,> 200 µM,> 200 µM,–
CN(CCC#N)c1ccc(/C=C(\C#N)c2ccc(Cl)cc2)cc1,> 200 µM,15.5 µM,–
N#CC(NNC(=O)Cc1ccccc1)c1ccc([N+](=O)[O-])cc1 (stereo not drawn),> 115 µM,> 115 µM,–
CCOC(=O)COc1ccc(OCC(=O)OCC)c2c1C(=O)CCCC2=O,–,–,inactive
CN(C)CC1CCC(CN(C)C)C1=NO (stereo not drawn),–,–,inactive
COc1ccc(/C=C/C(=O)Oc2ccc(/C=C3\CCCCC3=O)cc2)cc1,> 200 µM,1.05 µM,–
CN(C)c1ccc(N=Nc2cccc3ncccc23)cc1,> 200 µM,72.4 µM,–
CC1(C)Oc2ccc3c(=O)cc(-c4cccs4)oc3c2C1C(=O)O (stereo not drawn),> 200 µM,> 200 µM,–
CC(=O)OCC1OC(OC(C)=O)C(On2nnc3c(-c4ccccc4)c(C)nn32)C(OC(C)=O)C1OC(C)=O (stereo not drawn),> 60.3 µM,31.6 µM,–
O=C1OC2C=CC1C1C(=O)OC(=O)C21 (stereo not drawn),> 200 µM,> 200 µM,–
COc1cccc2c1[C@]1(O)C(O)CCCC21 (stereo partly drawn),> 200 µM,> 200 µM,–
CCCCNS(=O)(=O)c1ccc(-c2c3nc(c(-c4ccc(S(=O)(=O)NCCCC)cc4)c4ccc([nH]4)c(-c4ccc(S(=O)(=O)NCCCC)cc4)c4nc(c(-c5ccc(S(=O)(=O)NCCCC)cc5)c5ccc2[nH]5)C=C4)C=C3)cc1,> 200 µM,> 200 µM,–
O=c1c2ccccc2[se]n1-c1ccccn1,7.76 µM,16.2 µM,–
CCn1c(=O)c(N=O)c(N)n(CCCO)c1=O,> 200 µM,> 200 µM,–

Compound,EC50,IC50,outcome
COc1ccc(-n2sc3ncc(-c4ccccc4)cc3c2=O)cc1,7.08 µM,35.5 µM,–
C=C1CC(Cn2ccc(=O)[nH]c2=O)(c2ccc(-c3ccccc3)cc2)OC1=O (stereo not drawn),> 20 µM,0.479 µM,–
Cc1ccc2c(N(CCO)CCO)cc(-c3ccccc3)nc2n1,> 200 µM,> 200 µM,–
CC(=S)N=Cc1c(O)[nH]c(=O)[nH]c1=O,> 200 µM,> 200 µM,–
CC1(C)C2CC[C@]3(C)C(C(=O)C=C4[C@@H]5C[C@@](C)(C(=O)O)CC[C@]5(C)CCC43C)[C@@]2(C)CC[C@@H]1OC1OC(C(=O)O)C(O)C(O)C1OC1OC(C(=O)O)C(O)C(O)C1O (stereo partly drawn) (tested in a mixture with another compound),–,–,inactive
CCOC(=O)C1=C(O)c2ccccc2C(=O)C1=O,> 525 µM,316 µM,–
COc1ccc(OC)c(/C=C/NC=O)c1,> 200 µM,> 200 µM,–
COc1cc(C2SCC(=O)N2c2ccc(-c3ccc(-n4c(-c5ccccc5)nc5ccccc5c4=O)cc3)cc2)cc(OC)c1OC (stereo not drawn),> 200 µM,14.8 µM,–
CC1=NN(C(=O)Cc2ccccc2)C(=O)/C1=C\c1ccco1,> 64.6 µM,> 64.6 µM,–
Cc1ccc(CC(Cc2ccccc2C)C(=O)O)c(C(=O)O)c1 (stereo not drawn),> 200 µM,> 200 µM,–
COc1ccccc1N/N=c1/c2n(-c3ccc(Cl)cc3)c(=S)n(-c3ccccn3)c1=NCCN=2,> 200 µM,> 200 µM,–
O=C(CI)Nc1ccc2oc(=O)c(C(=O)O)cc2c1,> 214 µM,23.4 µM,–
Cc1cn(C2OC(CO)CC2F)c(=O)[nH]c1=O (stereo not drawn),> 646 µM,> 646 µM,–
CC(CC(=O)N(C)[C@H](C[C@@H](C)C(Cl)(Cl)Cl)c1nccs1)C(Cl)Cl (stereo partly drawn),–,–,inactive
O=c1ccn(Cc2ccccc2)c(=S)[nH]1,> 200 µM,> 200 µM,–
N=C(N)Cn1cnc2ccccc21,> 5500 µM,4680 µM,–
CN(C(=O)C12C3C4C5C3C1(C(=O)C13C6C7C8C6C1C8C73)C5C42)C(C)(C)C (stereo not drawn),> 135 µM,> 135 µM,–
CC(C1=CC=C2[C@@H]3CCC4CC(N(C)C)CC[C@]4(C)C3CC[C@]12C)N(C)C=O (stereo partly drawn),> 35.5 µM,> 35.5 µM,–
COC1/C=C/OC2(C)Oc3c(C)c(O)c4c(O)c(c(C=NN5C(C)CN(Cc6ccc(Cl)cc6)CC5C)c(O)c4c3C2=O)NC(=O)/C(C)=C/C=C/C(C)C(O)C(C)C(O)C(C)C(OC(C)=O)C1C (stereo not drawn),> 200 µM,6.17 µM,–
O=C(CC(=O)n1nc(-c2ccccc2)c(N=Nc2ccccc2Cl)c1-c1ccccc1)Nc1ccc(Cl)cc1,> 33.9 µM,> 33.9 µM,–
O=C(Cc1ccccc1)NN1C(=O)C(Cl)C1c1ccc([N+](=O)[O-])cc1 (stereo not drawn),> 20 µM,> 20 µM,–
Cc1cccnc1NC(=S)Nc1cccc(C(F)(F)F)c1,> 200 µM,16.2 µM,–
NCc1c(C(N)=O)ncn1Cc1ccccc1,–,–,inactive

Compound,EC50,IC50,outcome
C=C1C2CCC3(CCC4C5(C)CCCC4(CN(CC)C5)C3C2)C1O (stereo not drawn),–,–,inactive
Cn1cc(C(N)=O)ccc1=N,> 200 µM,> 200 µM,–
CCCCCCCC(=O)c1ccc(O)c(-c2nc3ccc(C(F)(F)F)cc3[nH]2)c1,> 24.5 µM,2.09 µM,–
CC12CCCC(C#N)(C1)OC2=O (stereo not drawn),–,–,inactive
OC1(c2cccc(Cl)c2)C2=NCCCN2c2ccccc21 (stereo not drawn),–,–,inactive
COc1ccc2c3c([nH]c2c1[N+](=O)[O-])C(C)N(C)CC3 (stereo not drawn),–,–,inactive
CC1CC(C)CC(NC2=NCCO2)C1 (stereo not drawn),> 200 µM,> 200 µM,–
CC1(C)OCC(C2OC3OC(C)(C)OC3C2c2ccccc2)O1 (stereo not drawn),> 200 µM,> 200 µM,–
CCOC(=O)CC1=CSC2=NCCN12,–,–,inactive
N#CC1=C(N2CCCC2)NC(=O)CC1=O,> 200 µM,> 200 µM,–
COC(=O)c1nc(-c2nc(CCNC(=O)OC(C)(C)C)sc2Cl)sc1Cl,> 4.27 µM,> 4.27 µM,–
COC(=O)C1C=CCON2CCc3c(n(C)c4ccccc34)C12 (stereo not drawn),> 22.9 µM,> 22.9 µM,–
CC(C)(C)OC(=O)NC(CCC(=O)OCc1ccccc1)C(=O)NCCCO (stereo not drawn),> 200 µM,> 200 µM,–
O=C(O)c1cc(N=Nc2c(O)cc(O)cc2C(=O)O)ccc1/C=C/c1ccc(N=Nc2c(O)cc(O)cc2C(=O)O)cc1C(=O)O,87.1 µM,95.5 µM,–
CC1(C(=O)O)OC12CCCCC2 (stereo not drawn),> 200 µM,> 200 µM,–
COc1ccc(N2C(=O)C3c4[nH]c5ccccc5c4C4CC(C)(C)CC(C)(C)C4C3C2=O)cc1 (stereo not drawn),> 4.37 µM,> 4.37 µM,–
CON(C)c1nc(N)c(C#N)c(C#N)c1C#N,> 200 µM,35.5 µM,–
O=C(O)Cc1ccccc1CCc1ccccc1Cl,> 479 µM,251 µM,–
Nc1nc(Cl)nc2c1ncn2C1CCC(COP(=O)(O)OP(=O)(O)OP(=O)(O)O)O1 (stereo not drawn),–,–,active
CCC1(CC)C(=O)N(C(=O)c2ccc(C)cc2)N(C(=O)c2ccc(C)cc2)C1=O,> 200 µM,20.4 µM,–
CN(C)c1n2c3ccc([N+](=O)[O-])cc3n3c(N(C)C)[n+]4ccccc4c3c2c2cccc[n+]12,> 200 µM,89.1 µM,–
